Data on 34 compounds can be found in patent US10864201B2, “Heteroaromatic compounds as Vanin inhibitors” (Boehringer Ingelheim International GmbH, priority 2018, dated 2020).

The target of test [1] is FLAG-tagged Vanin-1 (AA 22-493, T26I) (Homo sapiens (Human), UniProt O95497, T26I). Kind of test: Vanin-1 enzymatic assay. It counts as biochemical. Conditions: formation of pantothenic acid from D-pantethine (3 μM), RapidFire MS; geometric mean in case of multiple measurements; read-out: VNN 1 IC50. The procedure: The test compounds are dissolved in 100% DMSO at a concentration of 10 mM and in a first step diluted in DMSO to a concentration of 5 mM, followed by serial dilution steps in 100% DMSO. Dilution factor and number of dilution steps may vary according to needs. Typically 8 different concentrations by 1:5 dilutions are prepared, a further intermediate dilutions of the substances is carried out with assay buffer resulting in 1% final DMSO concentration in the assay.
0.1 nM of FLAG-tagged Vanin-1 (AA 22-493, T26I, produced internally) and test compounds are incubated at room temperature for 20 minutes in assay buffer (1 mM DTT, 0.0025% Brij-35, 50 mM HEPES, pH7.5). D-Pantethine (Sigma, Cat #P2125-5G) in assay buffer is added (final concentration 3 μM) and incubated for additional 30 minutes at room temperature. Total assay volume typically is 40 μl but might be adjusted according to needs. Reaction is stopped by adding equal volume of stop solution as the reaction mixture to reach 100 nM HD-pantothenic acid (as an internal standard) and 1% TFA. Assay plates are centrifuged for 2 minutes and the formation of pantothenic acid is detected by RapidFire Mass Spectrometry (mobile phase A: 0.1% formic acid and 0.01% trifluoroacetic acid in water; mobile phase B: 47.5% acetonitrile, 47.5% methanol, 0.1% formic acid and 0.01% trifluoroacetic acid in water) using a C18, 12 μL cartridge (Agilent Cat #G9205A).
The values given in Table I result from measurements of one or more samples. In case of multiple measurements the geometric mean values are given.

The test system of test [2] is Pantetheinase (vanin). The test can be described thus: Human Whole Blood assay. It counts as cell-based. Conditions: formation of pantothenic acid after pantethine supplementation, RapidFire MS, read-out: HWB IC50. As to the method:
Human Whole Blood assay: Pantetheinase (vanin) converts panteheine into pantothenic acid and cysteamine. Accordingly, in the described protocol vanin activity is quantified by formation of pantothenic acid after pantetheine supplementation via pantethine. The assay is applicable to identify vanin inhibitors. Compound stocks were dissolved in DMSO at 10 mM. Further dilutions were performed in RPMI 1640 medium (Gibco, #A-10491-01) and final concentrations in the assay were 0.032 nM-500 nM.
Human blood was drawn into a blood bag (1% heparin, 50 I.E./mL). Blood was aliquoted into cavities of 96-deep-well plates at 290 μL and mixed with 10 μL compound solution or vehicle (30 sec at 1400 rpm on a shaker). Equilibration followed at room temperature, 250 rpm and for 30 min. The assay was started by adding 10 μL of substrate solution (20 μM pantethine in 1 mM DTT, 0.0025% Brij-35, 50 mM HEPES, pH7.5) to each well, except for some blank wells which received […] substrate buffer (1 mM DTT, 0.0025% Brij-35, 50 mM HEPES, pH7.5) only. Samples were thoroughly shaken (30 sec, 1400 rpm) and reaction was allowed to take place at room temperature, 250 rpm and for 5 min. The reaction was stopped by addition of a vanin tool inhibitor in excess (BI-1 total conc. 10 μM). Centrifugation of the plate followed at 4° C., 665 G for 10 min. Then the blood plasma samples (100 μL) were transferred into another 96-deep-well plate and proteins were precipitated (5 min on ice) by adding 100 μL of ice cold precipitation solution (1 μM labelled pantothenic acid (di-β-alanine-13C6,15N2 calcium salt, Sigma, #705837) in acetonitrile). Afterwards the plate was centrifuged (4° C., 3220 G, 10 min) and supernatants (50 μL) were collected into another 96-deep-well plate and mixed (10 sec, 1400 rpm) with 150 μL ice cold formic acid (0.1%, Carl Roth GmbH+Co.KG, #CP03.1). The formation of pantothenic acid is detected by RapidFire Mass Spectrometry. A TripleQuad 6500+ (ABSciex, Germany) was equipped with an LC-1290 system, a RapidFire autosampler (Agilent, Germany) and a C18 cartridge Type C 12 μL (Agilent Cat #G9526-80000). Mobile phase A was consisting of 0.09% formic acid and 0.01% trifluoroacetic acid in water and mobile phase B of 0.09% formic acid and 0.01% trifluoroacetic acid in acetonitrile/methanol/water=47.5/47.5/5.

Each structure is given as a SMILES string.

Chain of FLAG-tagged Vanin-1 (AA 22-493, T26I) (O95497 22-493 T26I): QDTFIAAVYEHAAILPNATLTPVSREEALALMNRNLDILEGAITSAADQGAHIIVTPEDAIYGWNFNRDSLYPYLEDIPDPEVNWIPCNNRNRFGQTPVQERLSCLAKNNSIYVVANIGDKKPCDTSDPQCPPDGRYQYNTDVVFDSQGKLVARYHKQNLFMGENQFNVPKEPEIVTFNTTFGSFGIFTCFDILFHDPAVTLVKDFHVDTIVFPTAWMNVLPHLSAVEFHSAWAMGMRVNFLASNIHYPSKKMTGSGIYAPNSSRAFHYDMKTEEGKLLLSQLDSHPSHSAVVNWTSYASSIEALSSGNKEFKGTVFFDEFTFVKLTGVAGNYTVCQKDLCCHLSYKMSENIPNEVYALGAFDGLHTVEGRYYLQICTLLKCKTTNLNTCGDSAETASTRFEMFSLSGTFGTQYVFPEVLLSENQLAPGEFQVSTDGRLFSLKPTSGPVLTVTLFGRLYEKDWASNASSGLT

`CC(=O)N(C)[C@H]1CCN(C(=O)c2cnc3c(c2)CCCC(C)(C)N3)C1` [Example 12.4]: the IC50 in test [1] is 2.5 nM.

Turning to `CC1(C)Cc2cc(C(=O)N3CCC4(CCOCC4)C3)cnc2N1` [Example 1.4], the concentration for half-maximal inhibition (IC50) in test [1] was found to be 4.9 nM.

On to `CN(C(=O)C1(C#N)CC1)[C@H]1CCN(C(=O)c2cnc3c(c2)CCC(C)(C)N3)C1` [Example 11.7], for which the IC50 in test [1] worked out at 4.9 nM.

For `CN(C(=O)C1CCC1)[C@H]1CCN(C(=O)c2cnc3c(c2)CCC(C)(C)N3)C1` [Example 11.10], the half-inhibitory concentration (IC50) came to 0.6 nM in test [1] and 10.6 nM in test [2].

On to `CC(=O)N(C)[C@H]1CCN(C(=O)c2cnc3c(c2)CC(C)(C)N3)C1` [Example 1.1, N-[(3S)-1-{2,2-Dimethyl-1H,2H,3H-pyrrolo[2,3-b]pyridine-5-carbonyl}pyrrolidin-3-yl]-N-methylacetamide], for which the IC50 in test [1] stood at 2.5 nM.

For the compound `CC(=O)N(C)[C@H]1CCN(C(=O)c2cnc3c(c2)C[C@](C)(c2cccc(Cl)c2)N3)C1` [Example 7.2], the concentration for half-maximal inhibition (IC50) turned out to be 0.1 nM in test [1] and 2 nM in test [2].

Take `CC(=O)N(C)[C@H]1CCN(C(=O)c2cnc3c(c2)CCC(C)(c2ccccc2)N3)C1` (stereo partly shown) [Example 12.2]: the IC50 is 0.3 nM in test [1] and 8.2 nM in test [2].

Turning to `CN(C(=O)C1CC1)[C@H]1CCN(C(=O)c2cnc3c(c2)CC[C@@](C)(c2cncnc2)N3)C1` [Example 13.4], the IC50 in test [1] is 11.5 nM.

In the case of `C[C@]1(c2cccc(F)c2)Cc2cc(C(=O)N3CC[C@H](N4CCOC4=O)C3)cnc2N1` [Example 4.1, 3-[(3S)-1-[(2R)-2-(3-Fluorophenyl)-2-methyl-1H,2H,3H-pyrrolo[2,3-b]pyridine-5-carbonyl]pyrrolidin-3-yl]-1,3-oxazolidin-2-one], the IC50 in test [1] was determined as 0.1 nM; in test [2], 1.4 nM.

As for `CN(C(=O)C1CCC1)[C@H]1CCN(C(=O)c2cnc3c(c2)CC[C@](C)(c2cncnc2)N3)C1` [Example 13.1, N-methyl-N-[(3S)-1-[(7R)-7-Methyl-7-(pyrimidin-5-yl)-5,6,7,8-tetrahydro-1,8-naphthyridine-3-carbonyl]pyrrolidin-3-yl]cyclobutanecarboxamide], the IC50 in test [1] amounted to 0.2 nM.

Consider `CC(=O)N(C)[C@H]1CCN(C(=O)c2cnc3c(c2)C[C@@](C)(c2ccc(Cl)cc2)N3)C1` [Example 9.2, N-[(3S)-1-[(2S)-2-(4-Chlorophenyl)-2-methyl-1H,2H,3H-pyrrolo[2,3-b]pyridine-5-carbonyl]pyrrolidin-3-yl]-N-methylacetamide], for which the half-inhibitory concentration (IC50) in test [1] was 1.4 nM.

For `CN(C(=O)C1(C)CCC1)[C@H]1CCN(C(=O)c2cnc3c(c2)CC(C)(C)N3)C1` [Example 2.3], the 50% inhibitory concentration (IC50) in test [1] is 4.6 nM.

Regarding `CC1(C)CCc2cc(C(=O)N3CC[C@H](N4CCOC4=O)C3)cnc2N1` [Example 11.5], the concentration for half-maximal inhibition (IC50) in test [1] was found to be 4.3 nM.

Consider `CC(=O)N(C)[C@H]1CCN(C(=O)c2cnc3c(c2)CCC(C)(C)N3)C1` [Example 11.6], for which the results for the IC50 in test [1] and in test [2] were 0.5 nM and 12.6 nM, respectively.

Regarding `CN(C(=O)C1CC1)[C@H]1CCN(C(=O)c2cnc3c(c2)CC(C)(C)N3)C1` [Example 2.5], the 50% inhibitory concentration (IC50) in test [1] was 2.1 nM.

For the compound `CN(C(=O)C1(C#N)CC1)[C@H]1CCN(C(=O)c2cnc3c(c2)CC(C)(C)N3)C1` [Example 2.2], the IC50 in test [1] worked out at 1.1 nM; in test [2] it was 9.5 nM.

In the case of `CN(c1ncccn1)[C@H]1CCN(C(=O)c2cnc3c(c2)CC(C)(C)N3)C1` [Example 3.1, N-[(3S)-1-{2,2-Dimethyl-1H,2H,3H-pyrrolo[2,3-b]pyridine-5-carbonyl}pyrrolidin-3-yl]-N-methylpyrimidin-2-amine], the IC50 in test [1] turned out to be 2.3 nM; in test [2], 38 nM.

Take `C[C@]1(c2cccc(F)c2)Cc2cc(C(=O)N3CC[C@H](N4CCCC4=O)C3)cnc2N1` [Example 4.4]: the IC50 in test [1] came to 0.1 nM; in test [2] it was 2.1 nM.

Turning to `CC(=O)N(C)[C@H]1CCN(C(=O)c2cnc3c(c2)C[C@](C)(c2ccc(Cl)cc2)N3)C1` [Example 9.1, N-[(3S)-1-[(2R)-2-(4-Chlorophenyl)-2-methyl-1H,2H,3H-pyrrolo[2,3-b]pyridine-5-carbonyl]pyrrolidin-3-yl]-N-methylacetamide], the IC50 in test [1] stood at 0.1 nM; in test [2] it was 3 nM.

Take `CC(=O)N(C)[C@H]1CCN(C(=O)c2cnc3c(c2)CCC(c2ccccc2)N3)C1` (stereo partly drawn) [Example 12.1, N-Methyl-N-[(3S)-1-(7-phenyl-5,6,7,8-tetrahydro-1,8-naphthyridine-3-carbonyl)pyrrolidin-3-yl]acetamide]: the IC50 in test [1] came out at 20.3 nM.

For the compound `CC1(C)CCc2cc(C(=O)N3CCC4(CCOCC4)C3)cnc2N1` [Example 11.1, 2-(7,7-Dimethyl-5,6,7,8-tetrahydro-1,8-naphthyridine-3-carbonyl)-8-oxa-2-azaspiro[4.5]decane], the IC50 in test [1] was 1.7 nM.

In the case of `CC1(C)CCCc2cc(C(=O)N3CC[C@H](N4CCOC4=O)C3)cnc2N1` [Example 12.7], the 50% inhibitory concentration (IC50) in test [1] is 1.4 nM.

`CN(C(=O)C1CC1)[C@H]1CCN(C(=O)c2cnc3c(c2)CCCC(C)(C)N3)C1` [Example 12.6]: in test [1], the IC50 is 2.7 nM.

As to `C[C@]1(c2cccc(Cl)c2)Cc2cc(C(=O)N3CC[C@H](N4CCCC4=O)C3)cnc2N1` [Example 7.1, (3′S)-1′-[2-(3-Chlorophenyl)-2-methyl-1H,2H,3H-pyrrolo[2,3-b]pyridine-5-carbonyl]-[1,3′-bipyrrolidine]-2-one], the IC50 in test [1] stood at 0.1 nM.

As to `CC(=O)N(C)[C@H]1CCN(C(=O)c2cnc3c(c2)C[C@](C)(c2ccc(C#N)cc2)N3)C1` [Example 10, N-[(3S)-1-[(2R)-2-(4-Cyanophenyl)-2-methyl-1H,2H,3H-pyrrolo[2,3-b]pyridine-5-carbonyl]pyrrolidin-3-yl]-N-methylacetamide], the IC50 in test [1] was determined as 0.2 nM.

For the compound `CN(C(=O)C1CC1)[C@H]1CCN(C(=O)c2cnc3c(c2)CC[C@](C)(c2cncnc2)N3)C1` [Example 13.3], the 50% inhibitory concentration (IC50) in test [1] worked out at 0.3 nM.

As to `CN(C(=O)C1CCC1)[C@H]1CCN(C(=O)c2cnc3c(c2)CC[C@@](C)(c2cncnc2)N3)C1` [Example 13.2, N-methyl-N-[(3S)-1-[(7S)-7-Methyl-7-(pyrimidin-5-yl)-5,6,7,8-tetrahydro-1,8-naphthyridine-3-carbonyl]pyrrolidin-3-yl]cyclobutanecarboxamide], in test [1], the IC50 is 23.5 nM.

With `CC(=O)N(C)[C@H]1CCN(C(=O)c2cnc3c(c2)CCCCN3)C1` [Example 12.3], in test [1], the IC50 worked out at 0.4 nM.

As for `CC(=O)N(C)[C@H]1CCN(C(=O)c2cnc3c(c2)C[C@@](C)(c2cccc(F)c2)N3)C1` [Example 4.2], the IC50 in test [1] was found to be 1.7 nM.

For `CC(=O)N(C)[C@H]1CCN(C(=O)c2cnc3c(c2)C[C@@](C)(c2ccc(F)cc2)N3)C1` [Example 5.4], the IC50 in test [1] is 87.1 nM.

In the case of `CC1(C)Cc2cc(C(=O)N3CC4(CCOCC4)C3)cnc2N1` [Example 1.5], the IC50 in test [1] worked out at 10.4 nM.

Consider `CC(=O)N(C)[C@H]1CCN(C(=O)c2cnc3c(c2)C[C@@](C)(c2ccccc2)N3)C1` [Example 9.4], for which, in test [1], the half-maximal inhibitory concentration (IC50) is 25.9 nM.

`CC1(C)Cc2cc(C(=O)N3CC[C@H](N4CCOC4=O)C3)cnc2N1` [Example 1.3]: in test [1], the concentration for half-maximal inhibition (IC50) came out at 1.6 nM.

As for `CC1(C)CCCc2cc(C(=O)N3CC[C@H](N4CCCC4=O)C3)cnc2N1` [Example 12.5], the IC50 in test [1] is 1.5 nM.

By IC50 is commonly meant the concentration that inhibits the measured activity by half.
